The assay relates to amphetamine-induced symptoms. Nature of the assay: antagonism of amphetamine-induced symptoms in rats (block of d-amphetamine cage movement, rating scale). Type of assay: in vivo. As to conditions: Rattus norvegicus, ip, i.p. test compound, rated one hour after amphetamine. From the text:
The tranquilizing agents of the present invention are characterized by relief of such schizophrenic manifestations in humans as hallucinations, hostility, suspiciousness, emotional and social withdrawal, anxiety, agitation and tension. Standard procedures of detecting and comparing tranquilizing activity of compounds in this series and for which there is an excellent correlation with human efficacy is the antagonism of amphetamine-induced symptoms in rats test as taught by A. Weissman, et al., J. Pharmacol. Exp. Ther., 151, 339 (1966) and by Quinton, et al., Nature, 200, 178 (1963).
The effects of the compounds of the present invention on prominent amphetamine-induced symptoms were studied in rats by a rating scale modeled after the one reported by Quinton and Halliwell, and Weissman. Groups of five rats were placed in a covered plastic cage measuring approximately 26 cm. × 42 cm. × 16 cm. After a brief period of acclimation in the cage, the rats in each group were treated intraperitoneally (i.p.) with the test compound. […] On the basis of dose-response data after amphetamine it was possible to determine the effective dose of the compound necessary to antagonize or block the characteristic amphetamine behavior of cage movement for fifty percent of the rats tested (ED50). The time of rating chosen coincides with the peak action of amphetamine which is 60-80 min. after treatment with this agent.
Employing the above-described procedure, the following compounds were tested for their ability to block the behavior effects of amphetamine, the results being reported as the ED50 in mg./kg. at the indicated times: ##SPC25##

The mark [1] stands for this setting: d-amphetamine sulfate 5 mg./kg. i.p. 1 hr. later, read-out: ED50 (dose antagonizing/blocking characteristic amphetamine cage movement in fifty percent of rats), 1 hr.
The mark [2] stands for this setting: d-amphetamine sulfate 5 mg./kg. i.p. 5 hrs. later, read-out: ED50 (dose antagonizing/blocking characteristic amphetamine cage movement in fifty percent of rats), 5 hrs.

Like-named read-outs stand apart in the source and are kept apart here. A value given as a limit tells only on which side of the number the result lay.

This note sets out measurements from US3968231A, “4-Aryl-1,2,3,4-tetrahydropyrrolo(3,4-b)indoles for treating schizophrenic manifestations” (Bayer Aktiengesellschaft, priority 1975, dated 1976).

`Cl.OC(CCCN1Cc2c(n(-c3ccc(F)cc3)c3ccc(F)cc23)C1)c1ccc(F)cc1` (centres unmarked) [F F p-FC6 H4 CH(CH2)3 --, 7-Fluoro-4-(p-fluorophenyl)-2-[4-(p-fluorophenyl)-4-hydroxybutyl]-1,2,3,4-tetrahydropyrrolo[3,4-b]indole hydrochloride]: the ED50 is, setting by setting: under setting [1], 1 to 3.2 mg/kg; under setting [2], 1 to 3.2 mg/kg.
As to `CN(C)CCCN1c2ccccc2Sc2ccc(Cl)cc21` [chlorpromazine, reference compound], the ED50 under setting [1] is above 10 mg/kg.
Turning to `CN1Cc2c(n(-c3ccc(F)cc3)c3ccc(F)cc23)C1` [F F CH3, 7-Fluoro-4-(p-fluorophenyl)-2-methyl-1,2,3,4-tetrahydropyrrolo[3,4-b]indole], the ED50 by setting is: under setting [1], 3.2 to 5.6 mg/kg; under setting [2], above 10 mg/kg.
